{"source": "patent US20100298141A1", "about": "“SUBSTITUTED PYRIDINE N-OXIDE HERBICIDES” (E. I. DU PONT DE NEMOURS AND COMPANY, priority 2007, published 2010)", "key": {"duck salad": {"test_system": "duck salad", "assay": "Test C flooded paddy test", "assay_type": "in vivo, Heteranthera limosa", "conditions": "Flood", "summary_of_the_method": "(§1)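 Test compounds are applied straight into paddy water held 3 cm above the soil surface, with that flood maintained for the whole test. After 13 to 15 days in the greenhouse, each species is scored visually relative to controls.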"}, "barnyardgrass": {"test_system": "barnyardgrass", "assay": "Test C flooded paddy test", "assay_type": "in vivo, Echinochloa crus-galli", "conditions": "Flood", "summary_of_the_method": "as §1"}, "blackgrass": {"test_system": "blackgrass", "assay": "Test C pre-/postemergence test", "assay_type": "in vivo, Alopecurus myosuroides", "conditions": "preemergence, 250 g ai/ha; scale 0 (no effect) to 100 (complete control)", "summary_of_the_method": "(§2)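 Compounds in a non-phytotoxic solvent with surfactant applied preemergence to seeded pots and, at the same time, postemergence to plants 2–18 cm tall (1- to 4-leaf stage). Paddy tests: pots flooded to 3 cm, compound applied into the water, depth held throughout.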"}, "downy brome": {"test_system": "downy brome", "assay": "Test C pre-/postemergence test", "assay_type": "in vivo, Bromus tectorum", "summary_of_the_method": "as §2"}, "corn": {"test_system": "corn", "assay": "Test C pre-/postemergence test", "assay_type": "in vivo, Zea mays", "summary_of_the_method": "as §2"}, "morningglory": {"test_system": "morningglory", "assay": "Test C pre-/postemergence test", "assay_type": "in vivo, Ipomoea coccinea", "summary_of_the_method": "as §2"}, "wild oat": {"test_system": "wild oat", "assay": "Test C pre-/postemergence test", "assay_type": "in vivo, Avena fatua", "summary_of_the_method": "as §2"}, "velvetleaf [1]": {"test_system": "velvetleaf", "assay": "Test C pre-/postemergence test", "assay_type": "in vivo, Abutilon theophrasti", "summary_of_the_method": "as §2"}, "Italian ryegrass": {"test_system": "Italian ryegrass", "assay": "Test C pre-/postemergence test", "assay_type": "in vivo, Lolium multiflorum", "summary_of_the_method": "as §2"}, "velvetleaf [2]": {"test_system": "velvetleaf", "assay": "Test A pre-/postemergence greenhouse test", "assay_type": "in vivo, Abutilon theophrasti", "conditions": "for Plant response rating, Velvetleaf: 0 to 100 scale where 0 is no effect and 100 is complete control; for Velvetleaf plant response rating: 0 to 100 scale", "summary_of_the_method": "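Visual injury ratings against untreated controls, taken roughly ten days after treatment in greenhouse. Plants were sprayed postemergence at one- to two-leaf stage (2–10 cm tall); at the same time, seeded loam/sand soil received a directed preemergence spray. Formulation: non-phytotoxic solvent mixture with surfactant.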"}, "johnsongrass": {"test_system": "johnsongrass", "assay": "Test C pre-/postemergence test", "assay_type": "in vivo, Sorghum halepense", "summary_of_the_method": "as §2"}, "woolly cupgrass": {"test_system": "woolly cupgrass", "assay": "Test C pre-/postemergence test", "assay_type": "in vivo, Eriochloa villosa", "summary_of_the_method": "as §2"}, "cocklebur": {"test_system": "cocklebur", "assay": "Test C pre-/postemergence test", "assay_type": "in vivo, Xanthium strumarium", "summary_of_the_method": "as §2"}, "soybean": {"test_system": "soybean", "assay": "Test C pre-/postemergence test", "assay_type": "in vivo, Glycine max", "summary_of_the_method": "as §2"}, "giant foxtail": {"test_system": "giant foxtail", "assay": "Test C pre-/postemergence test", "assay_type": "in vivo, Setaria faberii", "summary_of_the_method": "as §2"}, "green foxtail": {"test_system": "green foxtail", "assay": "Test C pre-/postemergence test", "assay_type": "in vivo, Setaria viridis", "summary_of_the_method": "as §2"}, "[3]": {"conditions": "62 g ai/ha, scale 0 to 100 (0 no effect, 100 complete control)"}, "[4]": {"conditions": "250 g ai/ha, scale 0 to 100, 0 no effect, 100 complete control, 13 to 15 days"}, "[5]": {"conditions": "62 g ai/ha, Preemergence, scale 0 to 100"}, "[6]": {"conditions": "125 g ai/ha, preemergence, scale 0 (no effect) to 100 (complete control)"}, "[7]": {"conditions": "Preemergence, 31 g ai/ha, scale 0 to 100 (0 no effect, 100 complete control)"}, "[8]": {"conditions": "preemergence, 250 g ai/ha, scale 0 (no effect) to 100 (complete control)"}}}
{"smiles": "Cn1nc(OC(F)F)c(CS(=O)(=O)c2cccc[n+]2[O-])c1C(F)(F)F", "note": "[Compound 80]", "values": [{"measurement": "Plant response rating, Ducksalad", "setting": "duck salad; [3]", "value": 0}, {"measurement": "Plant response rating, Ducksalad", "setting": "duck salad; [4]", "value": 85}, {"measurement": "Plant response rating, Barnyardgrass", "setting": "barnyardgrass; [3]", "value": 0}, {"measurement": "Plant response rating, Barnyardgrass", "setting": "barnyardgrass; [4]", "value": 60}, {"measurement": "Blackgrass plant response rating", "setting": "blackgrass", "value": 90}, {"measurement": "Bromegrass, Downy plant response rating", "setting": "downy brome; [5]", "value": 40}, {"measurement": "Bromegrass, Downy plant response rating", "setting": "downy brome; [6]", "value": 60}, {"measurement": "Plant response rating, Bromegrass, Downy", "setting": "downy brome; [7]", "value": 40}, {"measurement": "Bromegrass, Downy plant response rating", "setting": "downy brome; [8]", "value": 95}, {"measurement": "Corn plant response rating", "setting": "corn; [5]", "value": 35}, {"measurement": "Corn plant response rating", "setting": "corn; [6]", "value": 90}, {"measurement": "Plant response rating, Corn", "setting": "corn; [7]", "value": 30}, {"measurement": "Corn plant response rating", "setting": "corn; [8]", "value": 98}, {"measurement": "Morningglory plant response rating", "setting": "morningglory; [6]", "value": 100}, {"measurement": "Plant response rating, Morningglory", "setting": "morningglory; [7]", "value": 10}, {"measurement": "Oat, Wild plant response rating", "setting": "wild oat; [5]", "value": 85}, {"measurement": "Oat, Wild plant response rating", "setting": "wild oat; [6]", "value": 95}, {"measurement": "Plant response rating, Oat, Wild", "setting": "wild oat; [7]", "value": 70}, {"measurement": "Oat, Wild plant response rating", "setting": "wild oat; [8]", "value": 100}, {"measurement": "Velvetleaf plant response rating", "setting": "velvetleaf [1]; [5]", "value": 0}, {"measurement": "Velvetleaf plant response rating", "setting": "velvetleaf [1]; [6]", "value": 60}, {"measurement": "Plant response rating, Velvetleaf", "setting": "velvetleaf [1]; [7]", "value": 0}, {"measurement": "Velvetleaf plant response rating", "setting": "velvetleaf [1]; [8]", "value": 65}, {"measurement": "Ryegrass, Italian plant response rating", "setting": "Italian ryegrass; [5]", "value": 70}, {"measurement": "Ryegrass, Italian plant response rating", "setting": "Italian ryegrass; [6]", "value": 85}, {"measurement": "Plant response rating, Ryegrass, Italian", "setting": "Italian ryegrass; [7]", "value": 0}, {"measurement": "Ryegrass, Italian plant response rating", "setting": "Italian ryegrass; [8]", "value": 90}, {"measurement": "Plant response rating, Velvetleaf", "setting": "velvetleaf [2]; Postemergence, 125 g ai/ha", "value": 0}, {"measurement": "Velvetleaf plant response rating", "setting": "velvetleaf [2]; Postemergence, 500 g ai/ha, 0 is no effect, 100 is complete control", "value": 60}, {"measurement": "Velvetleaf plant response rating", "setting": "velvetleaf [2]; Preemergence, 125 g ai/ha, 0 no effect, 100 complete control", "value": 0}, {"measurement": "Plant response rating, Velvetleaf", "setting": "velvetleaf [2]; Preemergence, 500 g ai/ha", "value": 70}, {"measurement": "Johnsongrass plant response rating", "setting": "johnsongrass; [5]", "value": 85}, {"measurement": "Johnsongrass plant response rating", "setting": "johnsongrass; [6]", "value": 90}, {"measurement": "Plant response rating, Johnsongrass", "setting": "johnsongrass; [7]", "value": 85}, {"measurement": "Johnsongrass plant response rating", "setting": "johnsongrass; [8]", "value": 100}, {"measurement": "Cupgrass, Woolly plant response rating", "setting": "woolly cupgrass; [5]", "value": 100}, {"measurement": "Cupgrass, Woolly plant response rating", "setting": "woolly cupgrass; [6]", "value": 100}, {"measurement": "Plant response rating, Cupgrass, Woolly", "setting": "woolly cupgrass; [7]", "value": 100}, {"measurement": "Cupgrass, Woolly plant response rating", "setting": "woolly cupgrass; [8]", "value": 100}, {"measurement": "Cocklebur plant response rating", "setting": "cocklebur; [5]", "value": 0}, {"measurement": "Cocklebur plant response rating", "setting": "cocklebur; [6]", "value": 45}, {"measurement": "Plant response rating, Cocklebur", "setting": "cocklebur; [7]", "value": 0}, {"measurement": "Cocklebur plant response rating", "setting": "cocklebur; [8]", "value": 80}, {"measurement": "Soybean plant response rating", "setting": "soybean; [5]", "value": 0}, {"measurement": "Soybean plant response rating", "setting": "soybean; [6]", "value": 20}, {"measurement": "Plant response rating, Soybean", "setting": "soybean; [7]", "value": 0}, {"measurement": "Soybean plant response rating", "setting": "soybean; [8]", "value": 20}, {"measurement": "Foxtail, Giant plant response rating", "setting": "giant foxtail; [5]", "value": 90}, {"measurement": "Foxtail, Giant plant response rating", "setting": "giant foxtail; [6]", "value": 98}, {"measurement": "Plant response rating, Foxtail, Giant", "setting": "giant foxtail; [7]", "value": 80}, {"measurement": "Foxtail, Giant plant response rating", "setting": "giant foxtail; [8]", "value": 100}, {"measurement": "Foxtail, Green plant response rating", "setting": "green foxtail; [5]", "value": 85}, {"measurement": "Foxtail, Green plant response rating", "setting": "green foxtail; [6]", "value": 100}, {"measurement": "Plant response rating, Foxtail, Green", "setting": "green foxtail; [7]", "value": 85}, {"measurement": "Foxtail, Green plant response rating", "setting": "green foxtail; [8]", "value": 100}]}
